Test results published in patent publication US20260242452A1, “METHOD FOR DEGRADING TARGET PROTEIN” (Inter-University Research Institute Corporation Research …, priority 2023, published 2026).

Experiments:
Assay type in all cases: cell-based, human
SMC6-GFP = assay: Degradation of SMC6-GFP, GFP fluorescence quantified by flow cytometry (FACS); conditions: 1 μM 5-Ph-IAA, 4 hours; HCT116 cells expressing SMC6-GFP, OsTIR1 (F74G) and GFP nanobody adapter
Method: (§1) As an mAID-single-chain antibody (nanobody) gene (also referred to as an adapter), a wild-type (WT adapter) and a ubiquitination-resistant mutant (KR adapter) in which all lysine residues (K) in the amino acid sequence encoded by the mAID-single-chain antibody (nanobody) gene were substituted with arginine residues (R) were prepared.
(§2) A co-expression vector in which the OsTIR1 (F74G) gene and the WT adapter or the KR adapter were connected by a self-cleaving sequence P2A gene was prepared (see FIG. 2).
(§3) In the chromosome of HCT116 cells, DNA encoding GFP was introduced into the downstream of DNA encoding each of the nuclear protein SMC6 and the cytoplasmic protein DHC1 by transposon, and cells expressing SMC6-GFP and cells expressing DHC1-GFP were prepared.
(§4) A co-expression vector containing an adapter (WT adapter; KR adapter) that contains a gene encoding a GFP nanobody (GFP nanobody WT gene sequence (SEQ ID NO: 9); GFP nanobody KR gene sequence (SEQ ID NO: 10)), together with the OsTIR1 (F74G) gene, was introduced into the cells expressing each SMC6-GFP and DHC1-GFP. […]
(§5) These cells were treated with 1 μM 5-Ph-IAA for 4 hours, and the GFP fluorescence in the cells was quantified using flow cytometry. […]
as §5

DHC1-GFP = assay: Degradation of DHC1-GFP, GFP fluorescence quantified by flow cytometry (FACS); conditions: 1 μM 5-Ph-IAA, 4 hours; HCT116 cells expressing DHC1-GFP, OsTIR1 (F74G) and GFP nanobody adapter
Method: as §1, §2, §3, §4, §5, §5

RAD21-GFP = assay: Degradation of RAD21-GFP, GFP fluorescence quantified by flow cytometry (FACS); conditions: 1 μM 5-Ph-IAA, 4 hours; HCT116 cells expressing RAD21-GFP, OsTIR1 (F74G) and GFP nanobody adapter
Method: As the mAID-single-chain antibody (nanobody) gene, in addition to the WT adapter and the KR adapter, a hybrid adapter in which all lysine residues (K) in the amino acid sequence encoded by the mAID gene were substituted with arginine residues (R) was prepared. As in Example 1, a co-expression vector in which the OsTIR1 (F74G) gene and the WT adapter, the KR adapter, or the hybrid adapter were connected by a self-cleaving sequence P2A gene was prepared (see FIG. 7).
In the chromosome of HCT116 cells, DNA encoding GFP was added to the downstream of DNA encoding each of the nuclear protein SMC6, the nuclear protein RAD21, and the cytoplasmic protein DHC1 by genome editing, and cells expressing SMC6-GFP and cells expressing DHC1-GFP were prepared (see FIG. 8).
A co-expression vector containing an adapter (WT adapter; KR adapter; hybrid adapter) that contains a gene encoding a GFP nanobody (GFP nanobody WT (SEQ ID NO: 9); GFP nanobody KR (SEQ ID NO: 10)), together with the OsTIR1 (F74G) gene, was introduced into the cells expressing each SMC6-GFP, RAD21-GFP, and DHC1-GFP by transposon. As a control, a plasmid in which only OsTIR1 (F74G) and mAID were expressed was introduced (see FIG. 8).
as §5

endogenous p53 = assay: Expression level of endogenous p53 by Western blotting; conditions: 1 μM 5-Ph-IAA, 6 hours; cells expressing OsTIR1 (F74G) and p53 nanobody KR adapter
Method: (§6) Furthermore, the same experiment was performed using an adapter (WT adapter; KR adapter) containing a gene encoding a p53 nanobody (p53 nanobody WT gene sequence (SEQ ID NO: 11); p53 nanobody KR gene sequence (SEQ ID NO: 12)) (see the left part of FIG. 6). The cells were treated with 1 μM 5-Ph-IAA for 6 hours, and the expression level of endogenous p53 was confirmed by Western blotting. The results are shown in the right part of FIG. 6.
as §6, with “adapter; KR adapter; hybrid adapter) containing” for “adapter; KR adapter) containing”, “of FIG. 10). The cells” for “of FIG. 6). The cells”

endogenous RAS = assay: Expression level of endogenous RAS by Western blotting; conditions: 1 μM 5-Ph-IAA, 6 hours; cells expressing OsTIR1 (F74G) and RAS nanobody hybrid adapter
Method: Furthermore, the same experiment was performed using an adapter (KR adapter; hybrid adapter) containing a gene encoding a RAS nanobody (gene sequence of RAS nanobody WT (SEQ ID NO: 14), amino acid sequence of RAS nanobody WT (SEQ ID NO: 15); gene sequence of RAS nanobody KR (SEQ ID NO: 16), amino acid sequence of RAS nanobody KR (SEQ ID NO: 17)) (see the left part of FIG. 11). The cells were treated with 1 μM 5-Ph-IAA for 6 hours, and the expression level of endogenous RAS was confirmed by Western blotting. The results are shown in the right part of […].

For O=C(O)Cc1c[nH]c2ccc(-c3ccccc3)cc12 [Formula 5-Ph-IAA, 5-Ph-IAA], the “5-Ph-IAA-dependent degradation of target protein SMC6-GFP (GFP fluorescence)” value (SMC6-GFP) was “could be degraded”, the “5-Ph-IAA-dependent degradation of target protein DHC1-GFP (GFP fluorescence)” value (DHC1-GFP) was “could be degraded” and the “5-Ph-IAA-dependent degradation of target protein RAD21-GFP (GFP fluorescence)” value (RAD21-GFP) was “could be degraded”. For the same molecule, the “5-Ph-IAA-dependent degradation of endogenous p53 (Western blotting)” value (endogenous p53) was “could be degraded” and the “5-Ph-IAA-dependent degradation of endogenous RAS (Western blotting)” value (endogenous RAS) was “could be efficiently degraded”.
